Like-named read-outs stand apart in the source and are kept apart here.

What all share (format): in vivo, humans
The subject of test [1] is bitter taste of KCl foodstuff slurries. In words: Two-alternative forced choice (2AFC) sip and spit test of KCl turkey foodstuff slurries. Conditions: Homo sapiens, turkey slurry, 1.6% KCl, 2AFC vs KCl slurry standard, dash = none of the tested conc. On the procedure:
Edible KCl food compositions (“KCl test foodstuff slurries”) were prepared as follows. Dehydrated, salt-free turkey powder was weighed and mixed with various amounts of KCl and/or NaCl and then solubilized with boiling water to create a homogenized solubilized turkey slurry. Varying amounts of the test compounds were dissolved in an amount of ethanol or water (depending on the solubility of the compound) to create a 5 mg/mL stock compound solution. An amount of this stock compound solution was then added to the turkey slurry. Enough EtOH is then added to the resulting stock compound/turkey slurry so that the slurry contains 1% EtOH. The slurry was again homogenized by boiling and mixing and allowed to cool to yield the final KCl test foodstuff slurry for taste testing KCl foodstuff slurry standards were similarly prepared without any test compound.
The effect of the test compounds on the perception of the bitter taste of KCl foodstuff slurries in humans was evaluated using a two-alternative-forced-choice “sip and spit” test as follows.
In a blind taste test, panelists received two portions of turkey slurry—one portion being the KCl foodstuff slurry standard and the other being one of the KCl test foodstuff slurries (each prepared as described in Example 5). The panelists tasted each of the portions by sipping and spitting. Each sample was tested in 2-4 discrete taste test experiments. Panelists were asked to rinse with water, eat a cracker, and wait about 10 minutes between samples. In each case, the panelists were asked to compare the bitter taste of the two turkey samples to each other (i.e., panelists were asked to indicate which sample was less bitter).

Test [2] concerns bitter taste of an aqueous solution of KCl. The test can be described thus: Sip and spit bitterness rating of aqueous KCl test solutions. Conditions: aqueous KCl 4.85 g/L, 1% EtOH, bitterness scored 0-15 vs KCl standard, dash = none of the tested conc.; for minimal effective concentration: Homo sapiens. On the procedure:
An amount of this stock compound solution is then added to an aqueous KCl solution. Enough EtOH is then added to the resulting stock compound/KCl solution so that the final KCl test solution contains 1% EtOH. KCl solution standards were similarly prepared by dissolving various amounts of KCl in water and ethanol without adding any test compound.
The effect of the test compounds an the perception of the bitter taste of an aqueous solution of KCl in humans was evaluated using a “sip and spit” test as follows.
(§1) A set of KCl solution standards was developed and each standard solution was assigned a bitterness taste score of 0-15 (corresponding to aqueous KCl concentrations of 0 mM-120 mM). Panelists were trained to recognize these standards. In addition, before each day of testing, panelists were tested to see if they could determine differences in taste between the standard solutions. If a panelist was unable to recognize a change in KCl concentration, they were excluded from the panel for that day.
(§2) In a blind taste test, panelists were asked to compare the bitter taste of a small quantity (e.g., 8 ml) of each of the KCl Test Solutions to the taste of a KCl solution standard, without swallowing (see, e.g., Table 1). Specifically, panelists were asked to rate the bitterness of each KCl Test Solution on a scale of 0-15 using the same scale developed for the KCl solution standards. Each sample was tested in 2-4 discrete taste test experiments. Panelists were asked to rinse with water, eat a cracker, and wait approximately 10 minutes between samples.

Test [3] concerns bitter taste of an aqueous solution of potassium lactate. The test can be described thus: Sip and spit bitterness rating of aqueous potassium lactate test solutions. As to conditions: Homo sapiens; aqueous potassium lactate 41 g/L, 1% EtOH; dash = none of the tested conc.; read-out: Conc. Where Decrease in Bitter Taste Was Discerned. The protocol: as §1, §2
Edible potassium lactate solution compositions (“potassium lactate test solutions”) were prepared by first dissolving varying amounts of the test compounds in an amount of ethanol or water (depending on the solubility of the compound) to create a 5 mg/mL stock compound solution. An amount of this stock compound solution is then added to an aqueous potassium lactate solution. Enough EtOH is then added to the resulting stock compound/potassium lactate solution so that the final potassium lactate test solution contains 1% EtOH. Potassium lactate solution standards were similarly prepared by dissolving various amounts of potassium lactate in water and ethanol without adding any test compound.
The effect of the test compounds on the perception of the bitter taste of an aqueous solution of potassium lactate in humans was evaluated using the “sip and spit” test described in Example 2.

[4] abbreviates: read-out: Conc. at Which At Least 50% of Panelist Discerned Decrease in Bitter Taste.
Setting [5] is: read-out: Conc. Where Decrease in Bitter Taste Discerned and p ≦ 0.1.
Where [6] appears, read: read-out: Conc. Where Decrease in Bitter Taste Was Discerned.

For the compound `O=c1c(O)c(-c2ccc(O)c(O)c2)oc2cc(O)cc(O)c12` [Compound 111], the minimal effective concentration in test [1] (setting [4]) turned out to be 1 µg/mL; in test [2] (setting [5]) it was 10 µg/mL.
In the case of `COc1cc(-c2oc3cc(O)cc(O)c3c(=O)c2O)ccc1O` [Compound 102], the minimal effective concentration in test [3] came to 1 µg/mL; in test [1] (setting [4]) it was 10 µg/mL; in test [2] (setting [5]) it was 1 µg/mL; in test [2] (setting [6]) it was 1 µg/mL.
Regarding `CC(=O)OC1C2(C)CCC(C2)C1(C)C` (stereo not drawn) [Compound 81], in test [2] (setting [6]), the minimal effective concentration was determined as 10 µg/mL.
With `CC(C)C(=O)OCc1ccc2c(c1)OCO2` [Compound 117], the minimal effective concentration in test [2] (setting [6]) came to 10 µg/mL.
With `O=C(O[C@@H]1Cc2c(O)cc(O)cc2O[C@@H]1c1ccc(O)c(O)c1)c1cc(O)c(O)c(O)c1` [Compound 107], in test [2] (setting [6]), the minimal effective concentration was 10 µg/mL.
Still for that read-out and setting: the figure for `Oc1cc(O)c2c(c1)O[C@@H](c1cc(O)c(O)c(O)c1)[C@H](O)C2` [Compound 106] is 1 µg/mL; for `CC(C)=CCCC(C)CC=O` (stereo not drawn) [Compound 13] it is 1 µg/mL; for `C[C@@H]1[C@@H](O)C[C@H]2C[C@@H]1C2(C)C` [Compound 90] it is 1 µg/mL.
Turning to `Oc1cc(O)c2c(c1)O[C@H](c1ccc(O)c(O)c1)[C@@H](O)C2` [Compound 104], the minimal effective concentration in test [2] (setting [6]) is 10 µg/mL.
For `CCCC(=O)OC/C=C(\C)CCC=C(C)C` [Compound 23], the minimal effective concentration in test [2] (setting [5]) came out at 1 µg/mL.
As to `CC(=O)CCC1C(C)=CCCC1(C)C` (stereo not drawn) [Compound 6], in test [2] (setting [5]), the minimal effective concentration stood at 1 µg/mL.
Turning to `CC(C)=CCCC(C)CCOC=O` (stereo not drawn) [Compound 8], the minimal effective concentration in test [1] (setting [4]) was 1 µg/mL; in test [2] (setting [6]) it was 10 µg/mL.
On to `CC(=O)CCC1=C(C)CCCC1(C)C` [Compound 4], for which the minimal effective concentration in test [2] (setting [5]) stood at 1 µg/mL.
On to `O=C(O)c1ccccc1` [Compound 54], for which, in test [2], the “Conc. Where Decrease in Bitter Taste Was Discerned” value is listed as 10 ppm.
In the case of `COC(=O)c1ccccc1OC` [Compound 68], the minimal effective concentration in test [2] (setting [6]) is 10 µg/mL.
The same measure, in the same setting: under `CC(=O)Oc1c(C)c(C)c2c(c1C)CC[C@@](C)(CCCC(C)CCCC(C)CCCC(C)C)O2` (stereo partly drawn) [Compound 45] stands 1 µg/mL.
As for `C=C1CC[C@H]2O[C@]2(C)CC[C@@H]2[C@@H]1CC2(C)C` [Compound 121], the minimal effective concentration in test [2] (setting [5]) and in test [2] (setting [6]) was 40 µg/mL in each case.
For `O=C(O)c1ccc(O)cc1O` [Compound 59], the minimal effective concentration in test [2] (setting [6]) was found to be 1 µg/mL.
Same read-out and setting: the figure for `COc1c(C(=O)CC(=O)c2ccccc2)ccc2occc12` [Compound 132] is 1 µg/mL; for `COC(CC(C)CCCC(C)(C)O)OC` (stereo not drawn) [Compound 18] it is 10 µg/mL; for `CCOC(=O)c1ccc(O)cc1` [Compound 62] it is 10 µg/mL.
Same read-out and setting: under `CC(C)CC(=O)O[C@@H]1C[C@@H]2CC[C@@]1(C)C2(C)C` [Compound 78] stands 1 µg/mL.
Turning to `O=C1C[C@@H](c2ccccc2)Oc2cc(O)cc(O)c21` [Compound 97], the minimal effective concentration in test [2] (setting [6]) was found to be 1 µg/mL.
Regarding `CC(=O)O[C@@H]1C[C@@H]2CC[C@@]1(C)C2(C)C` [Compound 88], the minimal effective concentration in test [1] (setting [4]) and in test [2] (setting [5]) was 1 µg/mL throughout.
As for `O=C(O[C@@H]1Cc2c(O)cc(O)cc2O[C@@H]1c1cc(O)c(O)c(O)c1)c1cc(O)c(O)c(O)c1` [Compound 108], the minimal effective concentration in test [2] (setting [6]) is 1 µg/mL.
Turning to `CC(C)=CCC/C(C)=C\COC(=O)CC(C)C` [Compound 25], the minimal effective concentration in test [2] (setting [5]) was determined as 1 µg/mL.
Consider `O=C(/C=C/C=C/c1ccc2c(c1)OCO2)N1CCCCC1` [Compound 113], for which the minimal effective concentration in test [2] (setting [6]) stood at 1 µg/mL.
Take `O=C1CC(C(=O)O)C(C(=O)O)O1` (stereo not drawn) [Compound 133]: the minimal effective concentration in test [2] (setting [5]) and in test [2] (setting [6]) was 2 µg/mL in each case.
For `COc1ccc(-c2cc(=O)c3c(OC)c(OC)c(OC)cc3o2)cc1` [Compound 99], the minimal effective concentration in test [2] (setting [6]) was found to be 1 µg/mL.
As for `CCCCOC(=O)c1ccc(O)cc1` [Compound 63], the minimal effective concentration was determined as 30 µg/mL in test [1] (read-out: Conc. at Which At Least 50% of Panelist Discerned Decrease in Bitter Taste and p ≦ 0.1); 1 µg/mL in test [2] (setting [5]).
On to `CC(=O)OC/C=C(\C)CCC=C(C)C` [Compound 21], for which the minimal effective concentration in test [1] (setting [4]) and in test [2] (setting [6]) was 10 µg/mL in each case.
Turning to `CC(CC=O)CCCC(C)(C)O` (stereo not drawn) [Compound 17], in test [2] (setting [6]), the minimal effective concentration stood at 1 µg/mL.
For the compound `COc1cc(OC)c2c(=O)cc(-c3ccccc3)oc2c1` [Compound 100], the minimal effective concentration in test [2] (setting [6]) worked out at 10 µg/mL.
On to `O=C(O)c1ccc(O)cc1` [Compound 58], for which the minimal effective concentration in test [2] (setting [5]) and in test [2] (setting [6]) was 10 µg/mL in each case.
As to `CC(=O)OCCC(C)CCC=C(C)C` (stereo not drawn) [Compound 9], the minimal effective concentration in test [2] (setting [6]) stood at 10 µg/mL.
Regarding `CC1(C)[C@H]2CC[C@H](CO)[C@@H]1C2` [Compound 92], the minimal effective concentration in test [2] (setting [5]) and in test [2] (setting [6]) was 1 µg/mL each time.
Take `CC(=O)/C=C/C1C(C)=CCCC1(C)C` (stereo not drawn) [Compound 5]: the minimal effective concentration in test [2] (setting [5]) and in test [2] (setting [6]) was 0.1 µg/mL each time.
In the case of `CC(C)=CCCC(C)CCO` (stereo not drawn) [Compound 7], in test [2] (setting [6]), the minimal effective concentration worked out at 10 µg/mL.
For `CC(O)c1ccccc1` (stereo not drawn) [Compound 71], the minimal effective concentration in test [2] (setting [5]) is 1 µg/mL.
On to `C/C=C/C(=O)C1=C(C)CCCC1(C)C` [Compound 1], for which the minimal effective concentration in test [2] (setting [5]) and in test [2] (setting [6]) was 0.1 µg/mL throughout.
Consider `Cc1cc(O)cc2c1O[C@](C)(CCC[C@H](C)CCC[C@H](C)CCCC(C)C)CC2` [Compound 49], for which the minimal effective concentration in test [2] (setting [6]) is 10 µg/mL.
Same read-out and setting: the figure for `O=c1cc(-c2ccccc2)oc2cc(O)ccc12` [Compound 101] is 1 µg/mL; for `CCCCC(=O)OCCC(C)CCC=C(C)C` (stereo not drawn) [Compound 12] it is 10 µg/mL.
Still for that read-out and setting: the figure for `CC(=O)CC/C=C(\C)CCC=C(C)C` [Compound 29] is 1 µg/mL; for `COc1ccc2c(c1)[nH]c1c(C)nccc12` [Compound 130] it is 40 µg/mL; for `CC(=O)OCC1=CC[C@@H]2C[C@H]1C2(C)C` [Compound 94] it is 10 µg/mL.
Still for that read-out and setting: under `CC(C)=CCC/C(C)=C/COC(=O)CC(C)C` [Compound 24] stands 10 µg/mL.
Turning to `COC(=O)c1ccc(O)cc1` [Compound 61], the minimal effective concentration in test [2] (setting [6]) was found to be 1 µg/mL.
Consider `C/C=C/c1ccc2c(c1)OCO2` [Compound 118], for which the minimal effective concentration in test [3] is 1 µg/mL.
Turning to `CCCOC(=O)c1ccccc1` [Compound 56], the minimal effective concentration in test [2] (setting [6]) was found to be 1 µg/mL.
Same read-out and setting: the figure for `CC(=O)Oc1c(C)c(C)c2c(c1C)CCC(C)(CCCC(C)CCCC(C)CCCC(C)C)O2` (stereo not drawn) [Compound 50] is 1 µg/mL; for `CCCC(=O)OC/C=C(/C)CCC=C(C)C` [Compound 33] it is 1 µg/mL.
